Data: US20250154105A1, “POLYCYCLIC COMPOUND AND USE THEREOF” (TYK MEDICINES, INC., priority 2021, published 2025)

How the values were obtained:
[1] = test system: human pleural mesothelioma cells NCI-H226; experiment: Cell anti-proliferation experiment (CCK8), NCI-H226; assay type: cell-based
Method in brief: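 Viability was measured by CCK-8 (3 h, A450) after 3-day treatment with 0.15–333.33 nM compound in 0.1% DMSO medium. Curve-fitted IC50 was based on viability normalised to no-drug and cell-free controls.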

YAP-TEAD = YAP-TEAD inhibitor activity by Nano luciferase method (8xGTiiC-nLuc reporter in 293T cells); assay type: cell-based; conditions: Homo sapiens, HEK-293T, 48 hours incubation, read-out: Nano-luciferase detection (IC50)
Method in brief: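 293T cells transiently transfected with pGL3B-8xGTiiC-nLuc-CMV-fLuc, seeded 2000 cells/well, then treated 48 h at 37 °C with compounds in 1:3.16 dilution series (top 10,000 nM). Nano luciferase signal read after cell lysis; IC50 from percent of 0 nM control.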

| Structure (SMILES) | IC50 [1] | IC50 (YAP-TEAD) |
| --- | --- | --- |
| CNS(=O)(=O)c1ccc2c(c1)-c1ncn(CCOC)c1CN2c1ccc(C(F)(F)F)cc1 [Example T-39] | ≤ 1 µM | ≤ 1 µM |
| CNS(=O)(=O)c1ccc2c(c1)-c1nn(C)cc1CN2c1ccc(C(F)(F)F)cc1 [Example T-18] | ≤ 1 µM | ≤ 1 µM |
| CNS(=O)(=O)c1ccc2c(c1)c1nn(C)cc1c(=O)n2-c1cccc(F)c1 [Example T-72] | ≤ 1 µM | ≤ 1 µM |
| CNS(=O)(=O)c1ccc2c(c1)c1ncn(CCO)c1c(=O)n2-c1ccc(C(F)(F)F)cc1 [Example T-46] | ≤ 1 µM | ≤ 1 µM |
| CCS(=O)(=O)Nc1ccc2c(c1)c1nn(C)cc1c(=O)n2-c1ccc(C(F)(F)F)cc1 [Example T-188] | ≤ 1 µM | ≤ 1 µM |
| COCC(C)NC(=O)c1ccc2c(c1)c1nn(C)cc1c(=O)n2-c1ccc(C(F)(F)F)cc1 (stereo not drawn) [Example T-107] | ≤ 1 µM | ≤ 1 µM |
| CNC(=O)Nc1ccc2c(c1)c1nn(C)cc1c(=O)n2-c1ccc(C(F)(F)F)cc1 [Example T-181] | ≤ 1 µM | ≤ 1 µM |
| Cn1cc2c(=O)n(-c3ccc(C(F)(F)F)cc3)c3ccc(NS(C)(=O)=O)cc3c2n1 [Example T-190] | ≤ 1 µM | ≤ 1 µM |
| CNS(=O)(=O)c1ccc2c(c1)c1c(cnn1C)c(=O)n2-c1ccc(C(F)(F)F)cc1 [Example T-195] | 1 to 5 µM | 1 to 5 µM |
| C=C(F)C(=O)Nc1ccc2c(c1)c1nn(C)cc1c(=O)n2-c1ccc(C(F)(F)F)cc1 [Example T-235] | ≤ 1 µM | ≤ 1 µM |
| C[C@H](NC(=O)c1cnc2c(c1)c1cscc1c(=O)n2-c1ccc(C(F)(F)F)cc1)c1ccccn1 [Example T-246] | ≤ 1 µM | ≤ 1 µM |
| COc1ccnc([C@@H](C)NC(=O)c2ccc3c(c2)c2nn(C)cc2c(=O)n3-c2ccc(C(F)(F)F)cc2)c1 [Example T-136] | 1 to 5 µM | 1 to 5 µM |
| Cc1cccc([C@H](C)NC(=O)c2ccc3c(c2)c2nn(C)cc2c(=O)n3-c2ccc(C(F)(F)F)cc2)n1 [Example T-151] | ≤ 1 µM | ≤ 1 µM |
| CNS(=O)(=O)c1ccc2c(c1)c1ncn(C)c1c(=O)n2-c1ccc(C(F)(F)F)cc1 [Example T-15] | ≤ 1 µM | ≤ 1 µM |
| CNS(=O)(=O)c1ccc2c(c1)c1nn(C)cc1c(=O)n2-c1ccc(C(F)(F)F)cc1 [Example T-31] | ≤ 1 µM | ≤ 1 µM |
| C[C@H](NC(=O)c1ccc2c(c1)c1nn(C)cc1c(=O)n2-c1ccc(C(F)(F)F)cc1)c1cccc(N)n1 [Example T-148] | ≤ 1 µM | ≤ 1 µM |
| COC[C@H](C)NC(=O)c1ccc2c(c1)c(=O)ccn2-c1ccc(C(F)(F)F)cc1 [Example T-35] | 1 to 5 µM | ≤ 1 µM |
| C[C@H](NC(=O)c1ccc2c(c1)c1nn(C)cc1c(=O)n2-c1ccc(C(F)(F)F)cc1)c1ccc(Cl)cn1 [Example T-130] | 1 to 5 µM | 1 to 5 µM |
| O=C(c1ccc2c(ccc(=O)n2-c2ccc(C(F)(F)F)cc2)c1)N1CC(O)C1 [Example T-22] | 1 to 5 µM | 1 to 5 µM |
| Cn1cc2c(=O)n(-c3ccc(C(F)(F)F)cc3)c3ccc(NS(=O)(=O)C(F)(F)F)cc3c2n1 [Example T-191] | ≤ 1 µM | ≤ 1 µM |
| COc1ccnc([C@H](C)NC(=O)c2ccc3c(c2)c2nn(C)cc2c(=O)n3-c2ccc(C(F)(F)F)cc2)c1 [Example T-143] | 1 to 5 µM | 1 to 5 µM |
| C[C@H](NC(=O)c1ccc2c(c1)c1nn(C)cc1c(=O)n2-c1ccc(C(F)(F)F)cc1)c1cccc(N(C)C)n1 [Example T-150] | ≤ 1 µM | ≤ 1 µM |
| Cn1cc2c(=O)n(-c3ccc(C(F)(F)F)cc3)c3ccc(C(N)=O)cc3c2n1 [Example T-114] | ≤ 1 µM | 1 to 5 µM |
| C[C@H](NC(=O)c1ccc2c(c1)c1nn(C)cc1c(=O)n2-c1ccc(C(F)(F)F)cc1)c1ccc(F)cn1 [Example T-144] | 1 to 5 µM | 1 to 5 µM |
| N#CC1CN(C(=O)c2ccc3c(c2)c(=O)ccn3-c2ccc(C(F)(F)F)cc2)C1 [Example T-38] | 1 to 5 µM | 1 to 5 µM |

Continued, values first:

| IC50 [1] | IC50 (YAP-TEAD) | Structure (SMILES) |
| --- | --- | --- |
| ≤ 1 µM | ≤ 1 µM | C[C@H](NC(=O)c1ccc2c(c1)c1ccc(C#N)cc1c(=O)n2-c1ccc(C(F)(F)F)cc1)c1ccccn1 [Example T-320] |
| ≤ 1 µM | ≤ 1 µM | C[C@H](NC(=O)c1ccc2c(c1)c1c(Cl)scc1c(=O)n2-c1ccc(C(F)(F)F)cc1)c1ccccn1 [Example T-301] |
| ≤ 1 µM | ≤ 1 µM | Cc1occ2c(=O)n(-c3ccc(C(F)(F)F)cc3)c3ncc(C(=O)N[C@@H](C)c4ccccn4)cc3c12 [Example T-375] |
| ≤ 1 µM | ≤ 1 µM | C[C@H](NC(=O)c1cnc2c(c1)c1sc(Cl)c(Br)c1c(=O)n2-c1ccc(C(F)(F)F)cc1)c1ccccn1 [Example T-405] |
| ≤ 1 µM | ≤ 1 µM | C[C@@H](NC(=O)c1ccc2c(c1)c1cscc1c(=O)n2-c1ccc(C(F)(F)F)cc1)c1cccc(N)n1 [Example T-397] |
| ≤ 1 µM | ≤ 1 µM | C[C@H](NC(=O)c1cnc2c(c1)c1ccoc1c(=O)n2-c1ccc(C(F)(F)F)cc1)c1ccccn1 [Example T-400] |
| ≤ 1 µM | ≤ 1 µM | C[C@H](NC(=O)c1cnc2c(c1)c1cc(F)ccc1c(=O)n2-c1ccc(C(F)(F)F)cc1)c1ccccn1 [Example T-407] |
| ≤ 1 µM | ≤ 1 µM | C[C@H](NC(=O)c1ccc2c(c1)c1c(c(=O)n2-c2ccc(C(F)(F)F)cc2)CCC1)c1cccc(N)n1 [Example T-425] |
| ≤ 1 µM | ≤ 1 µM | C[C@H](NC(=O)c1ccc2c(c1)-c1cscc1CN2C1CCC(C(F)(F)F)CC1)c1ccccn1 (stereo partly drawn) [Example T-269] |
| ≤ 1 µM | ≤ 1 µM | C[C@H](NC(=O)c1ccc2c(c1)c1ncccc1c(=O)n2-c1ccc(C(F)(F)F)cc1)c1cccc(N)n1 [Example T-419] |
| ≤ 1 µM | ≤ 1 µM | C[C@H](NC(=O)c1ccc2c(c1)c1c(c(=O)n2-c2ccc(C(F)(F)F)cc2)CCCC1F)c1ccccn1 (stereo partly drawn) [Example T-302] |
| ≤ 1 µM | ≤ 1 µM | Cc1cc2c(=O)n(-c3ccc(C(F)(F)F)cc3)c3ncc(C(=O)N[C@@H](C)c4ccccn4)cc3c2s1 [Example T-404] |
| ≤ 1 µM | ≤ 1 µM | Cc1cc(=O)n(-c2ccc(C(F)(F)F)cc2)c2ccc(C(=O)N[C@@H](C)c3cccc(N)n3)cc12 [Example T-413] |
| ≤ 1 µM | ≤ 1 µM | C[C@H](NC(=O)c1ccc2c(c1)c1cnccc1c(=O)n2-c1ccc(C(F)(F)F)cc1)c1cccc(N)n1 [Example T-434] |
| ≤ 1 µM | ≤ 1 µM | C[C@H](NC(=O)c1cnc2c(c1)C1CCCCC1C(=O)N2c1ccc(C(F)(F)F)cc1)c1ccccn1 (stereo partly drawn) [Example T-247] |
| ≤ 1 µM | ≤ 1 µM | Cc1ccc2c(c1)c(=O)n(-c1ccc(C(F)(F)F)cc1)c1ccc(C(=O)N[C@@H](C)c3ccccn3)cc21 [Example T-256] |

| IC50 [1] | IC50 (YAP-TEAD) | Structure (SMILES) |
| --- | --- | --- |
| ≤ 1 µM | ≤ 1 µM | CNS(=O)(=O)c1ccc2c(c1)c1cscc1c(=O)n2-c1ccc(C(F)(F)F)cc1 [Example T-265] |
| ≤ 1 µM | ≤ 1 µM | C[C@H](NC(=O)c1ccc2c(c1)c1c(c(=O)n2-c2ccc(C(F)(F)F)cc2)CCCC1)c1cccc(N)n1 [Example T-428] |
| ≤ 1 µM | ≤ 1 µM | C[C@H](NC(=O)c1ccc2c(n1)c1cscc1c(=O)n2-c1ccc(C(F)(F)F)cc1)c1ccccn1 [Example T-384] |
| ≤ 1 µM | ≤ 1 µM | C[C@H](NC(=O)c1cnc2c(c1)c1cocc1c(=O)n2-c1ccc(C(F)(F)F)cc1)c1ccccn1 [Example T-374] |
| ≤ 1 µM | ≤ 1 µM | Cc1cc2cc(C(=O)N[C@@H](C)c3ccccn3)ccc2n(-c2ccc(C(F)(F)F)cc2)c1=O [Example T-415] |
| ≤ 1 µM | ≤ 1 µM | C[C@H](NC(=O)c1ccc2c(c1)-c1nn(C)cc1[C@@H](C)N2c1ccc(C(F)(F)F)cc1)c1ccccn1 [Example T-326] |
| ≤ 1 µM | ≤ 1 µM | C[C@H](NC(=O)c1ccc2c(ccc(=O)n2-c2ccc(C(F)(F)F)cc2)c1)c1cccc(N)n1 [Example T-423] |
| ≤ 1 µM | ≤ 1 µM | C[C@H](NC(=O)c1ccc2c(c1)c1c(c(=O)n2-c2ccc(C(F)(F)F)cc2)C(F)(F)CC1)c1ccccn1 [Example T-295] |
| ≤ 1 µM | ≤ 1 µM | CNc1cccc([C@H](C)NC(=O)c2ccc3c(ccc(=O)n3-c3ccc(C(F)(F)F)cc3)c2)n1 [Example T-430] |
| ≤ 1 µM | ≤ 1 µM | C[C@H](NC(=O)c1ccc2c(c1)c1nscc1c(=O)n2-c1ccc(C(F)(F)F)cc1)c1cccc(N)n1 [Example T-435] |
| ≤ 1 µM | ≤ 1 µM | C=C1c2cn(C)nc2-c2cc(C(=O)N[C@@H](C)c3ccccn3)ccc2N1c1ccc(C(F)(F)F)cc1 [Example T-324] |
| ≤ 1 µM | ≤ 1 µM | C[C@H](NC(=O)c1ccc2c(n1)c1csc(Cl)c1c(=O)n2-c1ccc(C(F)(F)F)cc1)c1ccccn1 [Example T-388] |
| ≤ 1 µM | ≤ 1 µM | C[C@H](NC(=O)c1ccc2c(c1)c1c(c(=O)n2-c2ccc(C(F)(F)F)cc2)CN(C)C1)c1ccccn1 [Example T-287] |
| ≤ 1 µM | ≤ 1 µM | C[C@H](NC(=O)c1ccc2c(n1)c1c(Cl)scc1c(=O)n2-c1ccc(C(F)(F)F)cc1)c1ccccn1 [Example T-387] |
| ≤ 1 µM | ≤ 1 µM | Cc1c(C)c2cc(C(=O)N[C@@H](C)c3ccccn3)ccc2n(-c2ccc(C(F)(F)F)cc2)c1=O [Example T-436] |
| ≤ 1 µM | ≤ 1 µM | C[C@H](NC(=O)c1ccc2c(c1)c1scnc1c(=O)n2-c1ccc(C(F)(F)F)cc1)c1ccccn1 [Example T-331] |
